Test results published in BindingDB's records for doi:10.7270/Q2S46QC1 (Nmmlsc, 2009).

These compounds were tested against Apoptosis regulator Bcl-2 (Homo sapiens, UniProt P10415) (assay: Bcl-2 Bim peptide interaction hit potency – biochemical, dose response, multiplexed HTS hits, confirmation (AID 2075)). Details: not given.
Chain of Apoptosis regulator Bcl-2 (P10415 whole entry): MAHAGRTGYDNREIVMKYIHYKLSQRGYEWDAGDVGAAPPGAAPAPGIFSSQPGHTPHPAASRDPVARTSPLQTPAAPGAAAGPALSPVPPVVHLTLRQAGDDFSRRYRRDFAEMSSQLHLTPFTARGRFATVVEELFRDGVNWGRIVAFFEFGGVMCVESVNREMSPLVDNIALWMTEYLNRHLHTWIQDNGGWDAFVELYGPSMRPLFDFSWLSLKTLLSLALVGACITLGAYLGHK
Work on `O=C1NC(=O)C2(Cc3c(nc4ccccn4c3=O)N3CCCCCC32)C(=O)N1Cc1ccccc1` (configuration not stated) [MLS000083668] yielded an EC50 of 2.25 µM.
`O=[N+]([O-])c1c(NCCCO)cc(Sc2nc3ccccc3s2)c2nonc12` [MLS000520994] gave an EC50 of 1.91 µM.
For `CN(CCO)c1cc(Sc2nc3ccccc3s2)c2nonc2c1[N+](=O)[O-]` [MLS000520995], the EC50 was 6.35 µM.
Work on `CC(=O)OCCCNc1cc(Sc2nc3ccccc3s2)c2nonc2c1[N+](=O)[O-]` [MLS000521052] yielded an EC50 of 0.84 µM.
For `Cc1cc2nn(-c3cccc4ccccc34)nc2cc1N` [SMR000076237], the EC50 was 1.9 µM.
`Cc1ccc(C=NNC(=O)CSc2nnc(-c3ccc(Cl)cc3)n2-c2ccccc2)o1` [SMR000218122] was tested, and the EC50 was 12.3 µM.

Same assay, conditions: inactive by the depositor's call
`O=C(NCc1ccccc1)c1ccc2nc(-c3ccco3)c(-c3ccco3)nc2c1` [2,3-bis(furan-2-yl)-N-(phenylmethyl)quinoxaline-6-carboxamide] was tested, and the EC50 was 20.6 µM.
Compound `Cc1ccc(-c2nc3c(c(=O)[nH]c(=O)n3Cc3ccccc3)n2C)o1` [7-methyl-8-(5-methyl-2-furanyl)-3-(phenylmethyl)purine-2,6-dione] has an EC50 of 48.2 µM.
For `Clc1nc(NCc2cccnc2)nc(N2CCOCC2)n1` [MLS000121154], the EC50 was 18.9 µM.
For `COc1ccc(CCNC(=O)c2ccc3nc(-c4ccco4)c(-c4ccco4)nc3c2)cc1OC` [N-[2-(3,4-dimethoxyphenyl)ethyl]-2,3-di-2-furylquinoxaline-6-carboxamide], the EC50 was 25.8 µM.
For `COc1ccccc1NC1=C(NC(C)=O)C(=O)c2ccccc2C1=O` [N-[3-(2-methoxyanilino)-1,4-dioxonaphthalen-2-yl]acetamide], the EC50 was 12.1 µM.
Work on `CCN(CC)C(=O)COC(=O)c1cc(-c2ccco2)nc2ccccc12` [SMR000377201] yielded an EC50 of 29.5 µM.
